# Results: ChEMBL document CHEMBL1201862, “PubChem BioAssay data set” (2004)
# The source made the active and inactive calls.
# Legend:
# [1] = target: T1, RNA-binding protein pos-1 (Caenorhabditis elegans, UniProt G5EF15); experiment: disruptors of C. elegans POS-1 RNA interaction – biochemical, fluorescence polarization, dose response (AID 1964);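 also: purified POS-1 fused to maltose binding protein made in E. coli; potency of compounds blocking POS-1 binding to fluorescent RNA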
# T1 sequence (G5EF15 whole entry): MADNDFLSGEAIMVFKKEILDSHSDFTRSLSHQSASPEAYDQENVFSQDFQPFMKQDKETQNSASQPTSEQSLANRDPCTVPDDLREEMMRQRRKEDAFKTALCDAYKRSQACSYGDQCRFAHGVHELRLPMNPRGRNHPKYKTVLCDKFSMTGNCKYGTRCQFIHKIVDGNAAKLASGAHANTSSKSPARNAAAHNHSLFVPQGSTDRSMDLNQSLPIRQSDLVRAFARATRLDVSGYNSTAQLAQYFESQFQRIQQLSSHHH
# [2] = target: Glyceraldehyde-3-phosphate dehydrogenase (Homo sapiens, UniProt P04406)
# Glyceraldehyde-3-phosphate dehydrogenase, sequence (P04406 whole entry): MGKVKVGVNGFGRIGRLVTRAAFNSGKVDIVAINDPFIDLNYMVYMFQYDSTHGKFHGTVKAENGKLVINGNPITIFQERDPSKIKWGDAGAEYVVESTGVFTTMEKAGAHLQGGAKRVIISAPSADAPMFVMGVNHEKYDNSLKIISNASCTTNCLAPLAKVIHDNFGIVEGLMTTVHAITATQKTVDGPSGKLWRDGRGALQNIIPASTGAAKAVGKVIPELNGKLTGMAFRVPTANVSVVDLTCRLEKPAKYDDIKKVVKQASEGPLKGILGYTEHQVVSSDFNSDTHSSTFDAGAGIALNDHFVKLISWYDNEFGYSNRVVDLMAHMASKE
# [3] = target: T2, Zinc finger protein mex-5 (Caenorhabditis elegans, UniProt Q9XUB2); experiment: potency of MEX-5 RNA-binding blockers – biochemical, C. elegans, fluorescence polarization, dose response (AID 1960)
# T2 sequence (Q9XUB2 whole entry): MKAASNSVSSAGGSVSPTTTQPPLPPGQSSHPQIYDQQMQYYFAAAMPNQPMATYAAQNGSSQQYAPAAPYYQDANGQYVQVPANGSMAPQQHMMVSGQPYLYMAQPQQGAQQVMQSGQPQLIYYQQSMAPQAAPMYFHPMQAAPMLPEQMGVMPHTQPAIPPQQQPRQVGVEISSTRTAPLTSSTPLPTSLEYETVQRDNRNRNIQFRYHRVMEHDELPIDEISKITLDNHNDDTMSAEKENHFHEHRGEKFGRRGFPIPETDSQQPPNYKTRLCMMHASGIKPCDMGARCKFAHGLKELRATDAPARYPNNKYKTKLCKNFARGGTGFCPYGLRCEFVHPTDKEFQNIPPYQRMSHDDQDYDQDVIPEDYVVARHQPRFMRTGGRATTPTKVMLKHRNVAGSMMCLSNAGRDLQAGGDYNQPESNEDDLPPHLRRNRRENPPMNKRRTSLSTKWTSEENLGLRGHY
# [4] = target: Heat shock cognate 71 kDa protein (Homo sapiens, UniProt P11142); experiment: In Vitro Hsc70 Dose Response Fluorescence Polarization Assay. [Related pubchem assays: 1072 ]
# Heat shock cognate 71 kDa protein, sequence (P11142 whole entry): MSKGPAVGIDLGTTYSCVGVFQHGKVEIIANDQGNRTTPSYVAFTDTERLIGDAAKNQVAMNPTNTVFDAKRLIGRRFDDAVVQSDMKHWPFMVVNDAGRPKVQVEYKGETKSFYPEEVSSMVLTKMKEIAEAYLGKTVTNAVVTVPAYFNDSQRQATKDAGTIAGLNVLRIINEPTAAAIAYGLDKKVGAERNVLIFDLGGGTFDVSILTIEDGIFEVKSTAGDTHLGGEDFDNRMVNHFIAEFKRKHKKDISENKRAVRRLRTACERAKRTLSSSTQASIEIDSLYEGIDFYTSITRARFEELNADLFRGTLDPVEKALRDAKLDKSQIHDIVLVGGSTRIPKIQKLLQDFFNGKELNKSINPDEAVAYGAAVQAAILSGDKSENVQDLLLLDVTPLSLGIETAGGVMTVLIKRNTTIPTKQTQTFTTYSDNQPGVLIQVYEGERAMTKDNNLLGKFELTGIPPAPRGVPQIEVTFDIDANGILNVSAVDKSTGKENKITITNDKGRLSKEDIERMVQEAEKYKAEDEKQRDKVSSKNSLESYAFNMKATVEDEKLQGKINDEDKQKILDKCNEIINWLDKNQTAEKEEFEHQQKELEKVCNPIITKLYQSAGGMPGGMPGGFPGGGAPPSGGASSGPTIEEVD
# [5] = target: Heat shock 70 kDa protein 1A (Homo sapiens, UniProt P0DMV8); experiment: inhibition of Hsp70 binding activity – biochemical, fluorescence polarization, SAR follow-up (AID 1072)
# [6] = target: Potassium voltage-gated channel subfamily KQT member 2 (Rattus norvegicus, UniProt O88943); experiment: Mode of action assay - current amplitude concentration response for derivatives of ZTZ240, a potentiator of KCNQ2 potassium channels. [Related pubchem assays: 2258 (Summary assay for the KCNQ2 potentiators.), 2239 (Primary HTS assay for KCNQ2 potentiators with 305606 compounds tested, and 1644 are found to be active.)]; type: functional
# [7] = system: Streptococcus sp. 'group A'; experiment: Streptococcus pyogenes SK(-)GAS viability under kanamycin – luminescence, BacTiterGlo, confirmation, counter-screen for streptokinase expression inhibitor project, dose response (AID 1900); type: functional, organism-based
# Streptococcus [8] = experiment: Luminescence Microorganism-Based Dose Response Follow up to Identify Compounds Cytotoxic to Streptococcus. [Related pubchem assays: 1677 (Project Summary), 1915, 1914, 1902 (Retest at Dose), 1900 (Counter Screen), 1662 (Primary HTS)]; type: functional, organism-based
# Streptokinase A = target: T3, Streptokinase A (Streptococcus pyogenes serotype M1, UniProt P10520); experiment: viability-normalized secreted streptokinase activity reduction – plasminogen activation absorbance, OD405, dose response (AID 1914); type: functional, Streptococcus pyogenes M1 GAS;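 also: secreted streptokinase activity via plasminogen activation per viability signal from cell pellet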
# T3 sequence (P10520 whole entry): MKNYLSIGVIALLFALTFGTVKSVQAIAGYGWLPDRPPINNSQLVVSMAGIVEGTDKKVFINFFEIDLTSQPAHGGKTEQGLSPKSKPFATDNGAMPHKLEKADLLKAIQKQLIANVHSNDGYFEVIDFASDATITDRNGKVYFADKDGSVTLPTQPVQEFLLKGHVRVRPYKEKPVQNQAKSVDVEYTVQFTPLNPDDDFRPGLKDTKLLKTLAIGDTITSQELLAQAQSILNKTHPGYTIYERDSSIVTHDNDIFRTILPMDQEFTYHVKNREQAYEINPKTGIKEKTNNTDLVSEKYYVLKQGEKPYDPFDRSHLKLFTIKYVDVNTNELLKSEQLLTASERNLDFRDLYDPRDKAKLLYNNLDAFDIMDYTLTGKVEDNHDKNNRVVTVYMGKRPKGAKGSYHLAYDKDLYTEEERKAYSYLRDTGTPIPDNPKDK
# [9] = viability of PTEN-deleted HCT116 cells – cell-based, HCT116 PTEN knockout, dose response (AID 1047); type: functional;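 also: HCT116 colon tumor cells with PTEN knocked out; cells exposed to compound for 60 hours before readout; potency for loss of cell viability measured by luminescence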
# [10] = viability of HCT116 lacking mutant beta-catenin – cell-based, human colon tumor, dose response (AID 1045); type: functional;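 also: HCT116 colon tumor cells with beta catenin knocked out; cells exposed to compound for 60 hours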
# Streptococcus [11] = experiment: GAS UMAA2166 growth inhibition – luminescence, BacTiterGlo, counter-screen for streptokinase expression inhibitor project, dose response (AID 1915); type: functional, organism-based;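 also: potency for reduction of bacterial viability or growth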
# [12] = Luminescence Cell-Based Dose Retest to Confirm Inhibitors of Cancer Stem Cells. [Related pubchem assays (depositor defined):AID2717, AID2721]; type: functional; conditions: Homo sapiens
# INS1 = experiment: INS-1E survival protection against cytokine death – cell-based, luminescence, retest, dose response (AID 449756); type: functional; conditions: Rattus norvegicus;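 also: cell death triggered by IL-1 beta plus TNF-alpha plus IFN-gamma mixture; protective hits raise ATP signal compared with cytokine alone wells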
# [13] = Counterscreen for IDE inhibitors: Luminescence-based cell-based high throughput dose response assay to identify compounds that are cytotoxic to HEK cells. [Related pubchem assays: 434962 (Primary screen (IDE inhibitors in singlicate)), 449730 (Counterscreen (Cytotoxicity in triplicate)), 435028 (Confirmation (IDE inhibitors in triplicate)) …; type: functional; conditions: HEK293
# [14] = target: T4, Voltage-gated N-type calcium channel alpha-1B subunit/Amyloid beta A4 precursor protein-binding family A member 1 (Homo sapiens, UniProt Q00975+Q02410); type: protein assay
# T4 sequence (Q00975 whole entry): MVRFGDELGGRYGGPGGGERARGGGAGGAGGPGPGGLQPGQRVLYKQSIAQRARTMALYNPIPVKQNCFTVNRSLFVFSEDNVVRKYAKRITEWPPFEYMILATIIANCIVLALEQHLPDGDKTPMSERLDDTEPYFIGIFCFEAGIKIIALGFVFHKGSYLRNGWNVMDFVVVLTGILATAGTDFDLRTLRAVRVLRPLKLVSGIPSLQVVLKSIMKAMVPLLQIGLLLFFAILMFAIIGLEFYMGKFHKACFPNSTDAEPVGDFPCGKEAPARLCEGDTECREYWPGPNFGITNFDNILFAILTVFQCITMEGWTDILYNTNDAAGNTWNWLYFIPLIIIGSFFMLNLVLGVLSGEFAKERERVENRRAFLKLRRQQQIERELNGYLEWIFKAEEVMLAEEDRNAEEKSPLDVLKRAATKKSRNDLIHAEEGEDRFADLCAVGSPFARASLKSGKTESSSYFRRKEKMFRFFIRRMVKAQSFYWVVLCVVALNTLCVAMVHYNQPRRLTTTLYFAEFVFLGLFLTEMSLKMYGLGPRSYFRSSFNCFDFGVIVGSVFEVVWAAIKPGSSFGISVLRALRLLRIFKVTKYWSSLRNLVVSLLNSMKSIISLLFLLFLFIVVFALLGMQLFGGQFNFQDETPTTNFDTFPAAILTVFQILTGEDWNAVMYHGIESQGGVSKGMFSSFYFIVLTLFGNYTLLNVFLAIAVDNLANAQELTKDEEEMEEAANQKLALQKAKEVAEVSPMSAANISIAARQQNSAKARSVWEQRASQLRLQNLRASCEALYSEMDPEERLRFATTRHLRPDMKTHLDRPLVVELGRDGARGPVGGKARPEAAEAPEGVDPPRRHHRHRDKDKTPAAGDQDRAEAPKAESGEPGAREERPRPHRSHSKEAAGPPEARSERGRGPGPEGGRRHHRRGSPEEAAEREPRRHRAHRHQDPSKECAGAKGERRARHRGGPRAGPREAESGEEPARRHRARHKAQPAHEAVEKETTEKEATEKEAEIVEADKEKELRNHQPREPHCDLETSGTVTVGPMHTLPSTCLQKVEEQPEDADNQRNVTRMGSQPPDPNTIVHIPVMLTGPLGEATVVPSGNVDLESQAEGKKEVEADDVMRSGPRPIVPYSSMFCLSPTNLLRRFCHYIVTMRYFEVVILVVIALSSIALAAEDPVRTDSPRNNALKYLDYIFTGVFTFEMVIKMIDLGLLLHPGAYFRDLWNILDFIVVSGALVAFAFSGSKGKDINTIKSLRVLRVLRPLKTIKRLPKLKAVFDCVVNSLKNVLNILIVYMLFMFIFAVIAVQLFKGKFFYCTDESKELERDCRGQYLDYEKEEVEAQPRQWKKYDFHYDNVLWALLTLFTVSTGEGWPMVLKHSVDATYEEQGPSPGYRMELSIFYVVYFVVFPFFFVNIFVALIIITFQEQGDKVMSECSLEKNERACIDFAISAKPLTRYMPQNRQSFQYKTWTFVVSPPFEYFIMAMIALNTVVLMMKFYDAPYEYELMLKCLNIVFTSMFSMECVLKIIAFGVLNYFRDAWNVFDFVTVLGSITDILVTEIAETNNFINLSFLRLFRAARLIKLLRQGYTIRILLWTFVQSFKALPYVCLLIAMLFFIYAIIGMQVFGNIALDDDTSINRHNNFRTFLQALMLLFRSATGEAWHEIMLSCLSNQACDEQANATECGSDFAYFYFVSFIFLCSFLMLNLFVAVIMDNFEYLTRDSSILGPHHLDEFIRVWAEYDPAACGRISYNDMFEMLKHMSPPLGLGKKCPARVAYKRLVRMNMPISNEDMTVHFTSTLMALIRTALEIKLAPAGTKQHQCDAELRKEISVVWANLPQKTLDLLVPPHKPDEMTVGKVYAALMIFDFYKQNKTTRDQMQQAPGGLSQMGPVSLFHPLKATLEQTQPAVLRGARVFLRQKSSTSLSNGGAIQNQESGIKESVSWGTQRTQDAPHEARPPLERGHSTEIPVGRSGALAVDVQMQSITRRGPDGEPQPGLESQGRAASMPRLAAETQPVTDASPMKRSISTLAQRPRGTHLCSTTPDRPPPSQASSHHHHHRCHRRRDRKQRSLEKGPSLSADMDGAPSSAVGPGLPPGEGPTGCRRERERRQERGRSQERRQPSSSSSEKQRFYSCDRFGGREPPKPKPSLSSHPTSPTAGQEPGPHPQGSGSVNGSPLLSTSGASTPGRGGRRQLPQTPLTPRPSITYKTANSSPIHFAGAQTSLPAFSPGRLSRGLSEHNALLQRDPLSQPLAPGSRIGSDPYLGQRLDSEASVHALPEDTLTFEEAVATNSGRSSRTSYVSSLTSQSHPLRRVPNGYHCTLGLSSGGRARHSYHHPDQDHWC
# T4 sequence (Q02410 whole entry): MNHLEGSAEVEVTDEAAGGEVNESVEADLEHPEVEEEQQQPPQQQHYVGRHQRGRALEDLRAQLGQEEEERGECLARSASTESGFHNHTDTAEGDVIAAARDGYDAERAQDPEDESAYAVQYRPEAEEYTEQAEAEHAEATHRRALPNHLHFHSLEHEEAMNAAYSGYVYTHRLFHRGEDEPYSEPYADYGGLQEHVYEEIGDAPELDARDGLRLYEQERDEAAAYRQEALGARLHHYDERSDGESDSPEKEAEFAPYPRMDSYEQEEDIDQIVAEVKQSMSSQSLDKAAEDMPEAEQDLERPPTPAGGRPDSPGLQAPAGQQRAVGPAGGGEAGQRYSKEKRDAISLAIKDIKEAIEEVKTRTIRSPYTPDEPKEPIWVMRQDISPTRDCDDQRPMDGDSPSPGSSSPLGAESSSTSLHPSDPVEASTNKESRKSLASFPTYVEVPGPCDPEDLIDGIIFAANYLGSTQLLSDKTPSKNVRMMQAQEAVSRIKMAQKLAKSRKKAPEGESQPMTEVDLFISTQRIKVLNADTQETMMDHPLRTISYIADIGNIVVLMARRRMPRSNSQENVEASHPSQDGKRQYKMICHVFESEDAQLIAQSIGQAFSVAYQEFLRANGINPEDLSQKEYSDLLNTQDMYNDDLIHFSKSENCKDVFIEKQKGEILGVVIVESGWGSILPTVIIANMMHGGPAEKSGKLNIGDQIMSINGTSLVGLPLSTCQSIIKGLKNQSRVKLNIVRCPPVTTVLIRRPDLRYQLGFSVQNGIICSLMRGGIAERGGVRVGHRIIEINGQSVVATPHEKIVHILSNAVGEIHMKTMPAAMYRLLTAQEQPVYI
# [15] = target: T4, Voltage-gated N-type calcium channel alpha-1B subunit/Amyloid beta A4 precursor protein-binding family A member 1; type: protein assay; remark: listed apart in the source
# Insulin-degrading enzyme = Insulin-degrading enzyme (Homo sapiens, UniProt P14735); experiment: Dose Response: Fluorescence polarization-based cell-based high throughput dose response assay for inhibitors of insulin-degrading enzyme (IDE). [Related pubchem assays: 434962 (Primary screen (IDE inhibitors in singlicate)), 449730 (Counterscreen (Cytotoxicity in triplicate)), 435028 (Confirmation (IDE inhibitors in triplicate)), 434984 (Summary …; type: functional
# HeLa = experiment: Cytotoxicity counterscreen assay for transcriptional activators of heat shock protein 70 (Hsp70). [Related pubchem assays: 1203, 1252 ]; type: functional; conditions: Homo sapiens;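 also: cells exposed to compound for 16 hours before readout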
# BJ [16] = experiment: BJ-TERT fibroblast viability loss – cell-based, RAS-independent, luminescence, dose response (AID 1933); type: functional; conditions: Homo sapiens
# Galanin receptor type 2 = Galanin receptor type 2 (Homo sapiens, UniProt O43603); experiment: Dose Response cell-based high-throughput screening assay to identify antagonists of galanin receptor 2 (GALR2). [Related pubchem assays: 828, 866 ]; type: functional
# Galanin receptor type 2, sequence (O43603 whole entry): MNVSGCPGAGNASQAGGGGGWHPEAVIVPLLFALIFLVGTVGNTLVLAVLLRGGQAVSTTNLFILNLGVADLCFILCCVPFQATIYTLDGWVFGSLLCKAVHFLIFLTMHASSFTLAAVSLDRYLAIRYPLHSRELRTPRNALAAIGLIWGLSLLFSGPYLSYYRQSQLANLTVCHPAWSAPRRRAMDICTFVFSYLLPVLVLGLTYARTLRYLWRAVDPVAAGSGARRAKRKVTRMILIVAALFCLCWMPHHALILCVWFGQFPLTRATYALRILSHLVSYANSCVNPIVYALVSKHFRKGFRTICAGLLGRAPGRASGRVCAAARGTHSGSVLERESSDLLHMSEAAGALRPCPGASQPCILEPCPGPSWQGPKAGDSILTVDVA
# BJ [17] = experiment: cells; type: functional, cell-based; conditions: Homo sapiens
# [18] = Trypanosoma cruzi growth suppression in host cells – NIH3T3 host cells, beta-gal luminescence, confirmation (AID 2044); type: functional, cell-based;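 also: intracellular parasites grown in NIH/3T3 mouse fibroblasts as host cells; luminescent beta-galactosidase reporter signal from transgenic T. cruzi replicating inside host cells; inhibitors lower the luminescence signal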
# [19] = microbe, parasite or virus in culture; type: functional; conditions: Mycobacterium tuberculosis
# [20] = NIH3T3 cell viability loss – ATP luminescence, mouse fibroblasts, counter-screen, dose response (AID 2010); type: functional, cell-based;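 also: cells exposed to compound for about 90 hours before reading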
# BJ [21] = experiment: BJ-TERT-LT-ST fibroblast viability loss – cell-based, RAS-independent, luminescence, dose response (AID 1935); type: functional; conditions: Homo sapiens;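 also: BJ fibroblasts immortalized with TERT plus LT and ST oncogenes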
# [22] = DRD fibroblast viability loss – cell-based, non-viral oncogenic, luminescence, dose response (AID 1934); type: functional; conditions: Homo sapiens
# [23] = reduction of Shn3 3'UTR-driven luciferase in osteoblasts – cell-based, Clone20 osteoblasts, firefly luciferase, cherry-picked, dose response (AID 624132); type: functional;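 also: firefly luciferase luminescence from reporter carrying the Shn3 3'UTR in osteoblasts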
# [24] = loss of viability in HepG2 cells – cell-based, CellTiter-Glo, cherry-picked, cytotoxicity control for Shn3 inhibitor project, dose response (AID 624134); type: functional
# [25] = non-specific 3'UTR reporter inhibition in Clone20-Shn3RL – cell-based, Renilla luciferase, cherry-picked, counter-screen for Shn3 inhibitor project, dose response (AID 624133); type: functional
compound,measurement,setting,value
O=C(O)C1Nc2c(C(F)(F)F)ccc(Cl)c2C2C=CCC12 (stereo not given),EC50,[1],110 µM (active)
same,IC50,[2],> 100 µM (not active)
same,EC50,[3],61.5 µM (active)
same,IC50,[4],> 100 µM (not active)
same,IC50,[5],> 100 µM (not active)
O=C(Nc1ccc(Br)nc1)c1cccc(F)c1,EC50,[6],1.65 µM (active)
O=C(Nc1cc(S(=O)(=O)Nc2ccc(Cl)cc2)ccc1N1CCCCC1)c1ccc(F)cc1,EC50,[7],10.2 µM (active)
same,EC50,Streptococcus [8],150 µM (active)
same,EC50,Streptokinase A,5.17 µM (active)
same,EC50,[9],29.4 µM (active)
same,EC50,[10],21 µM (active)
same,EC50,Streptococcus [11],> 150 µM (not active)
same,AC50,[12],4.98 µM (active)
same,AC50,INS1,8.05 µM (active)
Cc1cc(C)c2c(=O)n(CC(=O)NCCCN3CCOCC3)sc2n1,IC50,[13],21.2 µM (not active)
same,IC50,[14],10.8 µM (active)
same,IC50,[15],46 µM (active)
same,IC50,Insulin-degrading enzyme,7.16 µM (active)
O=C(/C=C/Sc1nc[nH]n1)c1ccc(Cl)cc1,CC50,HeLa,> 3.67 µM (not active)
same,EC50,BJ [16],4.19 µM (active)
same,IC50,Galanin receptor type 2,10.9 µM (not active)
same,EC50,BJ [17],6.44 µM (inconclusive)
same,EC50,[18],1.99 µM (active)
same,CC50,[19],25.4 µM (active)
same,EC50,[20],3.28 µM (active)
same,EC50,BJ [21],12.3 µM (active)
same,EC50,[22],5.81 µM (active)
same,AC50,[23],9.76 µM (active)
same,AC50,[24],31.2 µM (active)
same,AC50,[25],14.4 µM (active)
